From patent US20190048016A1, “SUBSTITUTED BRIDGED UREA ANALOGS AS SIRTUIN MODULATORS” (GlaxoSmithKline Intellectual Property(No.2)Limited, priority 2014, published 2019)

Biological target: T1, SIRT1 (Homo sapiens, UniProt Q96EB6)
T1 sequence (Q96EB6 1-747): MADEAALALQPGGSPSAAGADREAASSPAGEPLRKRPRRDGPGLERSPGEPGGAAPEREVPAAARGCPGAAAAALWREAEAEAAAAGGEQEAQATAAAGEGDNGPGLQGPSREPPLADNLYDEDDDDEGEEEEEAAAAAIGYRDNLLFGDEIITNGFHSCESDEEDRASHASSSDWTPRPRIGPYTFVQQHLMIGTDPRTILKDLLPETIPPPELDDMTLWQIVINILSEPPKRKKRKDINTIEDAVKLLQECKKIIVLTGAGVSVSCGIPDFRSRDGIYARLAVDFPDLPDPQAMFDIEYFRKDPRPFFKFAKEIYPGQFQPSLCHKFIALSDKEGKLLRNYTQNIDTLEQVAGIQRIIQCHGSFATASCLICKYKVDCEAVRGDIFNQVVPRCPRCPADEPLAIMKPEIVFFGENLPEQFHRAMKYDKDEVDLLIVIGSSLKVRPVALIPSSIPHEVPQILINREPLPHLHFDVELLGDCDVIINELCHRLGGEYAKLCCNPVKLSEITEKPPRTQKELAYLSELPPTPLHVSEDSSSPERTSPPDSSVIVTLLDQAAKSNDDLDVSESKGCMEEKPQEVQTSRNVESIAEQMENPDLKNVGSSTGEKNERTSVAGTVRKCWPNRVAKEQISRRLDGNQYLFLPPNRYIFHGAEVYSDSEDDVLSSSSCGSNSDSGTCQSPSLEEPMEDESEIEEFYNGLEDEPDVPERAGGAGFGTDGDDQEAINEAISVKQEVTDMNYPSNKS
Experiment: Trp mass spectrometry assay of SIRT1 activation (deacetylation of Ac-R-H-K-K(Ac)-W-NH2 peptide, OAADPR formation)
Type: biochemical
Settings: Trp peptide 0.5 μM, 120 μM βNAD+, 10 nM SIRT1, 25 min, 25° C.; for Emax: 25 min, read-out: TRP MAX RESP (percent maximum fold activation relative to control = 100%)
Description: Mass spectrometry based assays were used to identify modulators of SIRT1 activity. The TAMRA based assay utilized a peptide having 20 amino acid residues as follows: Ac-EE-K(biotin)-[…](Ac)NleSTEG-K(5TMR)-EE-NH2 (SEQ ID NO: 1), wherein K(Ac) is an acetylated lysine residue and Nle is a norleucine. The peptide was labeled with the fluorophore 5TMR (excitation 540 nm/emission 580 nm) at the C-terminus. The sequence of the peptide substrate was based on p53 with several modifications. In addition, the methionine residue naturally present in the sequence was replaced with the norleucine because the methionine may be susceptible to oxidation during synthesis and purification. The Trp based assay utilized a peptide having an amino acid residues as follows: Ac-R-H-K-K(Ac)-W-NH2 (SEQ ID NO: 2).
The Trp mass spectrometry assay was conducted as follows. 0.5 μM peptide substrate and 120 μM βNAD^+ were incubated with 10 nM SIRT1 for 25 minutes at 25° C. in a reaction buffer (50 mM HEPES pH 7.5, […], 1 mM DTT, 0.05% BSA). The SIRT1 protein was obtained by cloning the SirT1 gene into a T7-promoter containing vector, which was then expressed in BL21(DE3) bacterial cells and purified as described in further detail below. Test compound was added at varying concentrations to this reaction mixture and the resulting reactions were monitored. After the 25 minute incubation with SIRT1, 10 μL of 10% formic acid was added to stop the reaction. The resulting reactions were sealed and frozen for later mass spec analysis. The relative SIRT1 activity was then determined by measuring the amount of O-acetyl-ADP-ribose (OAADPR) formed (or, alternatively, the amount of deacetylated Trp peptide generated) by the NAD-dependent sirtuin deacetylation reaction in the presence of varying concentrations of the test compound versus control reactions lacking the test compound. The degree to which the test agent activated deacetylation by SIRT1 was expressed as EC1.5 (i.e., the concentration of compound required to increase SIRT1 activity by 50% over the control lacking test compound), and Percent Maximum Activation (i.e., the maximum activity relative to control (100%) obtained for the test compound).
A control for inhibition of sirtuin activity was conducted by adding 1 μL of 500 mM nicotinamide as a negative control at the start of the reaction (e.g., permits determination of maximum sirtuin inhibition). A control for activation of sirtuin activity was conducted using 10 nM of sirtuin protein, with 1 μL of DMSO in place of compound, to determine the amount of deacetylation of the substrate at a given time point within the linear range of the assay. This time point was the same as that used for test compounds and, within the linear range, the endpoint represents a change in velocity.
For the above assay, SIRT1 protein was expressed and purified as follows. The SirT1 gene was cloned into a T7-promoter containing vector and transformed into BL21(DE3). The protein was expressed by induction with 1 mM IPTG as an N-terminal His-tag fusion protein at 18° C. overnight and harvested at 30,000×g. Cells were lysed with lysozyme in lysis buffer (50 mM Tris-HCl, 2 mM Tris[2-carboxyethyl] phosphine (TCEP), 10 μM ZnCl2, 200 mM NaCl) and further treated with sonication for 10 min for complete lysis. The protein was purified over a Ni-NTA column (Amersham) and fractions containing pure protein were pooled, concentrated and run over a sizing column (Sephadex S200 26/60 global). The peak containing soluble protein was collected and run on an Ion-exchange column (MonoQ). Gradient elution (200 mM-500 mM NaCl) yielded pure protein. This protein was concentrated and dialyzed against dialysis buffer (20 mM Tris-HCl, 2 mM TCEP) overnight. The protein was aliquoted and frozen at −80° C. until further use.
Sirtuin-modulating compounds of Formula (I) that activated SIRT1 were identified using the assay described above and are shown below in Table 1. […]

Question: How did the Emax turn out when `O=C(Nc1cncc(F)c1)N1c2nc(-c3ccnc(C(F)(F)F)c3)ccc2N2CCC[C@H]1C2` [Example 2, (9S)-N-(5-fluoropyridin-3-yl)-2-(2-(trifluoromethyl)pyridin-4-yl)-8,9-dihydro-6H-5,9-methanopyrido[2,3-b][1,4]diazocine-10(7H)-carboxamide] was run?
Answer: ≥ 150%

Question: And the “TRP Activity (EC1.5, concentration of compound required to increase SIRT1 activity by 50% over control)” value?
Answer: A (EC1.5<1 μM)

Question: What does the source list for `O=C(Nc1cncnc1)N1c2nc(-c3cncc(C(F)(F)F)c3)ccc2N2CCC[C@H]1C2` [Example 3, (9S)-N-(pyrimidin-5-yl)-2-(5-(trifluoromethyl)pyridin-3-yl)-8,9-dihydro-6H-5,9-methanopyrido[2,3-b][1,4]diazocine-10(7H)-carboxamide]?
Answer: Emax: ≥ 150%; TRP Activity (EC1.5, concentration of compound required to increase SIRT1 activity by 50% over control): A (EC1.5<1 μM)

Question: With `Cc1cc(-c2ccc3c(n2)N(C(=O)Nc2ccccn2)[C@H]2CCCN3C2)ccn1` [Example 4, (9S)-2-(2-methylpyridin-4-yl)-N-(pyridin-2-yl)-8,9-dihydro-6H-5,9-methanopyrido[2,3-b][1,4]diazocine-10(7H)-carboxamide] as the molecule, how does the Emax read?
Answer: ≥ 150%

Question: And the “TRP Activity (EC1.5, concentration of compound required to increase SIRT1 activity by 50% over control)” value?
Answer: A (EC1.5<1 μM)

Question: For `Cc1cc(-c2ccc3c(n2)N(C(=O)Nc2cncc(F)c2)[C@H]2CCCN3C2)ccn1` [Example 5, (9S)-N-(5-fluoropyridin-3-yl)-2-(2-methylpyridin-4-yl)-8,9-dihydro-6H-5,9-methanopyrido[2,3-b][1,4]diazocine-10(7H)-carboxamide], which Emax is on record?
Answer: ≥ 150%

Question: And the “TRP Activity (EC1.5, concentration of compound required to increase SIRT1 activity by 50% over control)” value?
Answer: A (EC1.5<1 μM)

Question: What does the source list for `O=C(Nc1cccnn1)N1c2nc(-c3ccnc(C(F)(F)F)c3)ccc2N2CCC[C@H]1C2` [Example 6, (9S)-N-(pyridazin-3-yl)-2-(2-(trifluoromethyl)pyridin-4-yl)-8,9-dihydro-6H-5,9-methanopyrido[2,3-b][1,4]diazocine-10(7H)-carboxamide]?
Answer: Emax: ≥ 150%; TRP Activity (EC1.5, concentration of compound required to increase SIRT1 activity by 50% over control): A (EC1.5<1 μM)

Question: How did the Emax turn out when `O=C(Nc1ccccn1)N1c2nc(-c3ccnc(C(F)(F)F)c3)ccc2N2CCC[C@H]1C2` [Example 7, (9S)-N-(pyridin-2-yl)-2-(2-(trifluoromethyl)pyridin-4-yl)-8,9-dihydro-6H-5,9-methanopyrido[2,3-b][1,4]diazocine-10(7H)-carboxamide] was run?
Answer: ≥ 150%

Question: What about the “TRP Activity (EC1.5, concentration of compound required to increase SIRT1 activity by 50% over control)” value of the same molecule?
Answer: A (EC1.5<1 μM)

Question: `O=C(Nc1ccncn1)N1c2nc(-c3ccnc(C(F)(F)F)c3)ccc2N2CCC[C@H]1C2` [Example 9, (9S)-N-(pyrimidin-4-yl)-2-(2-(trifluoromethyl)pyridin-4-yl)-8,9-dihydro-6H-5,9-methanopyrido[2,3-b][1,4]diazocine-10(7H)-carboxamide] was tested. Which Emax did it give?
Answer: ≥ 150%

Question: And the “TRP Activity (EC1.5, concentration of compound required to increase SIRT1 activity by 50% over control)” value?
Answer: A (EC1.5<1 μM)

Question: What does the source list for `O=C(Nc1cncnc1)N1c2nc(-c3ccnc(C(F)(F)F)c3)ccc2N2CCC[C@H]1C2` [Example 10, (9S)-N-(pyrimidin-5-yl)-2-(2-(trifluoromethyl)pyridin-4-yl)-8,9-dihydro-6H-5,9-methanopyrido[2,3-b][1,4]diazocine-10(7H)-carboxamide]?
Answer: Emax: ≥ 150%; TRP Activity (EC1.5, concentration of compound required to increase SIRT1 activity by 50% over control): A (EC1.5<1 μM)

Question: With `Cc1cc(-c2ccc3c(n2)N(C(=O)Nc2ccncn2)[C@H]2CCCN3C2)ccn1` [Example 12, (9S)-2-(2-methylpyridin-4-yl)-N-(pyrimidin-4-yl)-8,9-dihydro-6H-5,9-methanopyrido[2,3-b][1,4]diazocine-10(7H)-carboxamide] as the molecule, how does the Emax read?
Answer: ≥ 150%

Question: And the “TRP Activity (EC1.5, concentration of compound required to increase SIRT1 activity by 50% over control)” value?
Answer: A (EC1.5<1 μM)

Question: How did the Emax turn out when `Cc1cc(-c2ccc3c(n2)N(C(=O)Nc2cnccn2)[C@H]2CCCN3C2)ccn1` [Example 13, (9S)-2-(2-methylpyridin-4-yl)-N-(pyrazin-2-yl)-8,9-dihydro-6H-5,9-methanopyrido[2,3-b] [1,4] diazocine-10(7H)-carboxamide] was run?
Answer: ≥ 150%

Question: And the “TRP Activity (EC1.5, concentration of compound required to increase SIRT1 activity by 50% over control)” value?
Answer: A (EC1.5<1 μM)

Question: `Cc1cc(-c2ccc3c(n2)N(C(=O)Nc2cccnn2)[C@H]2CCCN3C2)ccn1` [Example 14, (9S)-2-(2-methylpyridin-4-yl)-N-(pyridazin-3-yl)-8,9-dihydro-6H-5,9-methanopyrido[2,3-b][1,4]diazocine-10(7H)-carboxamide] was tested. Which Emax did it give?
Answer: ≥ 150%

Question: And the “TRP Activity (EC1.5, concentration of compound required to increase SIRT1 activity by 50% over control)” value?
Answer: A (EC1.5<1 μM)

Question: Which Emax does the source give for `Cc1cc(-c2ccc3c(n2)N(C(=O)Nc2ccc4nn(C)cc4c2)[C@H]2CCCN3C2)ccn1` [Example 15, (9S)-N-(2-methyl-2H-indazol-5-yl)-2-(2-methylpyridin-4-yl)-8,9-dihydro-6H-5,9-methanopyrido[2,3-b][1,4]diazocine-10(7H)-carboxamide] here?
Answer: ≥ 150%

Question: What about the “TRP Activity (EC1.5, concentration of compound required to increase SIRT1 activity by 50% over control)” value of the same molecule?
Answer: A (EC1.5<1 μM)

Question: How did the Emax turn out when `Cc1cc(-c2ccc3c(n2)N(C(=O)Nc2cncnc2)[C@H]2CCCN3C2)ccn1` [Example 16, (9S)-2-(2-methylpyridin-4-yl)-N-(pyrimidin-5-yl)-8,9-dihydro-6H-5,9-methanopyrido[2,3-b][1,4]diazocine-10(7H)-carboxamide] was run?
Answer: ≥ 150%

Question: And the “TRP Activity (EC1.5, concentration of compound required to increase SIRT1 activity by 50% over control)” value?
Answer: B (EC1.5 1-25 μM)

Question: What does the source list for `O=C(Nc1cnccn1)N1c2nc(-c3ccnc(C(F)(F)F)c3)ccc2N2CCC[C@H]1C2` [Example 17, (9S)-N-(pyrazin-2-yl)-2-(2-(trifluoromethyl)pyridin-4-yl)-8,9-dihydro-6H-5,9-methanopyrido[2,3-b][1,4]diazocine-10(7H)-carboxamide]?
Answer: Emax: ≥ 150%; TRP Activity (EC1.5, concentration of compound required to increase SIRT1 activity by 50% over control): A (EC1.5<1 μM)

Question: How did the Emax turn out when `Cc1cc(-c2ccc3c(n2)N(C(=O)Nc2nc(C)c(C)s2)[C@H]2CCCN3C2)ccn1` [Example 19, (9S)-N-(4,5-dimethylthiazol-2-yl)-2-(2-methylpyridin-4-yl)-8,9-dihydro-6H-5,9-methanopyrido[2,3-b][1,4]diazocine-10(7H)-carboxamide] was run?
Answer: ≥ 150%

Question: What about the “TRP Activity (EC1.5, concentration of compound required to increase SIRT1 activity by 50% over control)” value of the same molecule?
Answer: A (EC1.5<1 μM)
